What was measured:
Test in all cases: Kinase profiling in a biochemical assay panel (mobility shift assays and ELISA), %-inhibition at 1 μM; selectivity entropy
[1] = target: panel of more than 300 wild-type and mutant kinases (313 kinase panel) (Homo sapiens, UniProt Q9Y2H1)
[2] = target: panel of more than 300 wild-type and mutant kinases (313 kinase panel) (Homo sapiens, UniProt O96017)
[3] = target: T1, panel of more than 300 wild-type and mutant kinases (313 kinase panel) (Homo sapiens, UniProt Q14164)
T1 sequence (Q14164 1-716): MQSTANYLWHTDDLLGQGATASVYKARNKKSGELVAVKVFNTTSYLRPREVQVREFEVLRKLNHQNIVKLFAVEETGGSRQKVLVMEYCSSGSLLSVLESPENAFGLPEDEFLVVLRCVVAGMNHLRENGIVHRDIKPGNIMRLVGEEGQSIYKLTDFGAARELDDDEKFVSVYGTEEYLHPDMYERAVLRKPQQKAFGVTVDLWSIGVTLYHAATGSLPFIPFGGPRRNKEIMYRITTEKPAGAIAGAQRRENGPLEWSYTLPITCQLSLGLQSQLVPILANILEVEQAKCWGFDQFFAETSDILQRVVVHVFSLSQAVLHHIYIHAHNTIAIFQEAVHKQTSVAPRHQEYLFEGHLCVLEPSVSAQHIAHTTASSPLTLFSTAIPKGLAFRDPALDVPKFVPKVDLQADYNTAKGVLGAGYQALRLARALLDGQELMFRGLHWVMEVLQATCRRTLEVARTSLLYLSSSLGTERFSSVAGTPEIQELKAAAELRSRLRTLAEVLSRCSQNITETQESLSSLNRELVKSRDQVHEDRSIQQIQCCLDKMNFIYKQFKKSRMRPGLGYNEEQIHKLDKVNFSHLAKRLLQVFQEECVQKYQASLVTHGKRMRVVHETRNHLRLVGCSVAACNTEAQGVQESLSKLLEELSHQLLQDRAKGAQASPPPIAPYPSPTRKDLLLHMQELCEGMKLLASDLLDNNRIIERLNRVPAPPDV

[4] = target: T2, panel of more than 300 wild-type and mutant kinases (313 kinase panel) (Homo sapiens, UniProt Q96PY6)
T2 sequence (Q96PY6 1-1258): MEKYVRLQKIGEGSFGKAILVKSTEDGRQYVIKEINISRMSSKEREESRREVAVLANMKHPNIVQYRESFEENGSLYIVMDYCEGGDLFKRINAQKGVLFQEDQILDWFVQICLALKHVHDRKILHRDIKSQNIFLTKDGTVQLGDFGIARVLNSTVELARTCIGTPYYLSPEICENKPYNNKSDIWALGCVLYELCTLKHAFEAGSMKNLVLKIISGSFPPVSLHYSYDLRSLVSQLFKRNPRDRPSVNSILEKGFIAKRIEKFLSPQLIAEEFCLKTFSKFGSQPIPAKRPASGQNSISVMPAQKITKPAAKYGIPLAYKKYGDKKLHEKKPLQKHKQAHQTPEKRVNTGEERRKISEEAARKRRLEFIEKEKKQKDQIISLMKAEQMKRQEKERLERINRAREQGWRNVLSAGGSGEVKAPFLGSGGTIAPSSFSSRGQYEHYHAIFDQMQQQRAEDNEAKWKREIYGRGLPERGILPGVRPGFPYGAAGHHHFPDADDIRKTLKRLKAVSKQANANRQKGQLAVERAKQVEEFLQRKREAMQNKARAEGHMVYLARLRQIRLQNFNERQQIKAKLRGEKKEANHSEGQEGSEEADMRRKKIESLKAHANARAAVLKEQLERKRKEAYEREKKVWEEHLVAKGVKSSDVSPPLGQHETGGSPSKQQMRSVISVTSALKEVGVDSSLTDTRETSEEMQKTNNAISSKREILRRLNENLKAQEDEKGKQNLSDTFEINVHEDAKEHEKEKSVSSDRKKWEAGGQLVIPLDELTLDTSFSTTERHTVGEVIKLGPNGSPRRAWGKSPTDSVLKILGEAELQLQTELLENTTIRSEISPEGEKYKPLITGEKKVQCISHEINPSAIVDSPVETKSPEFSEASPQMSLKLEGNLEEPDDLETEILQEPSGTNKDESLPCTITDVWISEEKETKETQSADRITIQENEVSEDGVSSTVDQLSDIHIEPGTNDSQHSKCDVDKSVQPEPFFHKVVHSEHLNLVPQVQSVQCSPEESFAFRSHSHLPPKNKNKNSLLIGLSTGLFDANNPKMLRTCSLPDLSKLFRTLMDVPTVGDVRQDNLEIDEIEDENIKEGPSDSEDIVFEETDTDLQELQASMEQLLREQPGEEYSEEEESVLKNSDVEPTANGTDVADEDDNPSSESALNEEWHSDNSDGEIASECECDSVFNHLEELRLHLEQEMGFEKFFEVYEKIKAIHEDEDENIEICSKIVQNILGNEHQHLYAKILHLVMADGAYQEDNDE

Sequence of panel of more than 300 wild-type and mutant kinases (313 kinase panel) (Homo sapiens, UniProt Q9Y2H1) (Q9Y2H1 whole entry, change not shown): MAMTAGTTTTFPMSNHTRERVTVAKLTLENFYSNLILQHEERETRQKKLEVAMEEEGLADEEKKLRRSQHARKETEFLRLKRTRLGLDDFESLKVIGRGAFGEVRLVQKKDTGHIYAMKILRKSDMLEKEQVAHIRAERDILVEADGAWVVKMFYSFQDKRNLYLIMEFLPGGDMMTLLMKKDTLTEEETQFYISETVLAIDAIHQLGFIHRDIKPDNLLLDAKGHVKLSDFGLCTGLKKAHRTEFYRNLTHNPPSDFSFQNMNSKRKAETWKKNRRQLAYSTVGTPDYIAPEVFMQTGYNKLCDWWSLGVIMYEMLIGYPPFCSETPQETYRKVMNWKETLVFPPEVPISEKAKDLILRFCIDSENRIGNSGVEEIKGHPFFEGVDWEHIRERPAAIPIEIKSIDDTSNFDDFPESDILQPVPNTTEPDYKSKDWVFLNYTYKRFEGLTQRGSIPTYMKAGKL

SMILES | %-inhibition of NDR2 ([1]; kinase NDR2, 1 μM) | %-inhibition, CHK2 ([2]; kinase CHK2, 1 μM compound) | %-inhibition of IKKε ([3]; kinase IKKε, compound at 1 μM) | %-inhibition of NEK1 ([4]; kinase NEK1, 1 μM) | %-inhibition of NEK1 ([4]; 1 µM) | %-inhibition of NDR2 ([1]; 1 µM) | %-inhibition, CHK2 ([2]; 1 µM) | %-inhibition of IKKε ([3]; 1 µM)
CO[C@H]1C[C@@H]2CC[C@@H](C)[C@@](O)(O2)C(=O)C(=O)N2CCCC[C@H]2C(=O)O[C@H]([C@H](C)C[C@@H]2CC[C@@H](OC(=O)C(C)(CO)CO)[C@H](OC)C2)CC(=O)[C@H](C)/C=C(\C)[C@@H](O)[C@@H](OC)C(=O)[C@H](C)C[C@H](C)/C=C/C=C/C=C/1C [temsirolimus] | -3.63% | -3.45% | -11% | -8% | – | – | – | –
CNC(=O)c1cc(Oc2ccc(NC(=O)Nc3ccc(Cl)c(C(F)(F)F)c3)c(F)c2)ccn1 [regorafenib] | -8.54% | -2.11% | -7% | -7% | – | – | – | –
CO[C@H]1C[C@@H]2CC[C@@H](C)[C@@](O)(O2)C(=O)C(=O)N2CCCC[C@H]2C(=O)O[C@H]([C@H](C)C[C@@H]2CC[C@@H](OCCO)[C@H](OC)C2)CC(=O)[C@H](C)/C=C(\C)[C@@H](O)[C@@H](OC)C(=O)[C@H](C)C[C@H](C)/C=C/C=C/C=C/1C [everolimus] | -8% | -37% | -10% | -7% | – | – | – | –
COc1cc2nccc(Oc3ccc(NC(=O)C4(C(=O)Nc5ccc(F)cc5)CC4)cc3)c2cc1OC [cabozantinib] | -6% | 65% | -7.58% | -4.23% | – | – | – | –
Cc1nc(Nc2ncc(C(=O)Nc3c(C)cccc3Cl)s2)cc(N2CCN(CCO)CC2)n1 [dasatinib] | -6% | – | – | – | – | – | – | –
COc1cc2c(Nc3ccc(Br)cc3F)ncnc2cc1OCC1CCN(C)CC1 [vandetanib] | -9% | 57% | -6.49% | -8% | – | – | – | –
CC(C)(C)c1nc(-c2cccc(NS(=O)(=O)c3c(F)cccc3F)c2F)c(-c2ccnc(N)n2)s1 [dabrafenib] | -2% | 7% | 15% | 24% | – | – | – | –
Cc1ccc(Nc2nccc(N(C)c3ccc4c(C)n(C)nc4c3)n2)cc1S(N)(=O)=O [pazopanib] | 2.36% | 5.7% | 0% | 2.41% | – | – | – | –
N#CC[C@H](C1CCCC1)n1cc(-c2ncnc3[nH]ccc23)cn1 [ruxolitinib] | 89% | 3.64% | 15% | -4% | – | – | – | –
C[C@@H](Oc1cc(-c2cnn(C3CCNCC3)c2)cnc1N)c1c(Cl)ccc(F)c1Cl [crizotinib] | -4.76% | 9% | 7.49% | 2.24% | – | – | – | –
CCCS(=O)(=O)Nc1ccc(F)c(C(=O)c2c[nH]c3ncc(-c4ccc(Cl)cc4)cc23)c1F [vemurafenib] | -2.51% | 6.32% | -9% | -2.74% | – | – | – | –
O=S(=O)(c1cccc2cnccc12)N1CCCNCC1 [fasudil] | 25% | 4% | -1.77% | -6.36% | – | – | – | –
CS(=O)(=O)CCNCc1ccc(-c2ccc3ncnc(Nc4ccc(OCc5cccc(F)c5)c(Cl)c4)c3c2)o1 [lapatinib] | -6% | 12% | -5% | – | 1.5% | – | – | –
C#Cc1cccc(Nc2ncnc3cc(OCCOC)c(OCCOC)cc23)c1 [erlotinib] | – | – | – | – | 5% | -6% | 10% | 5%
Cc1cn(-c2cc(NC(=O)c3ccc(C)c(Nc4nccc(-c5cccnc5)n4)c3)cc(C(F)(F)F)c2)cn1 [nilotinib] | -14% | -12% | -2.79% | -23% | – | – | – | –
COc1cc(Nc2c(C#N)cnc3cc(OCCCN4CCN(C)CC4)c(OC)cc23)c(Cl)cc1Cl [bosutinib] | – | – | 4.39% | – | – | – | – | –
CC(=O)Nc1cccc(-n2c(=O)n(C3CC3)c(=O)c3c(Nc4ccc(I)cc4F)n(C)c(=O)c(C)c32)c1 [trametinib] | -1.48% | -5% | -3.63% | -5% | – | – | – | –
Cc1ccc(C(=O)Nc2ccc(CN3CCN(C)CC3)c(C(F)(F)F)c2)cc1C#Cc1cnc2cccnn12 [ponatinib] | – | – | -9% | 78% | – | – | – | –
